Where two headings read alike, the source gives them in different places.
Assays:
human NK2-receptor [1] = target: T1, human NK2-receptor (Homo sapiens, UniProt P21452); experiment: Binding potency of the test substances to NK2-receptors in vitro ([3H]-SR 48968 displacement); set-up: expressed in transfected cells; host or cells: CHO cells (membrane preparation); settings: human NK2-receptor in CHO cell membranes, [3H]-SR 48968 (saredutant); average of at least three measurements; read-out: pKi, binding potency to NK2-receptors (converted)
T1 sequence (P21452 1-398): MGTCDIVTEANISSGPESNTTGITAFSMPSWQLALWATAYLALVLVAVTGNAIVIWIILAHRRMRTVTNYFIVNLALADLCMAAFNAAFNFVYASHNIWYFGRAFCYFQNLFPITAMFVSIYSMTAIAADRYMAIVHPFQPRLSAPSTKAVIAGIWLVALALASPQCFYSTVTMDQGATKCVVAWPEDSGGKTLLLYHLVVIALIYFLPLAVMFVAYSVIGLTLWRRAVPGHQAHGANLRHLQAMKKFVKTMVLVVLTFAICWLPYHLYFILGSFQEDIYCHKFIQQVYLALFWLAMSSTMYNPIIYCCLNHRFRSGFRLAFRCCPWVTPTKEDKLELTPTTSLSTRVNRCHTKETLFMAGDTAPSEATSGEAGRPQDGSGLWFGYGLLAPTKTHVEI
Source text: 2. Determination of the Binding Potency of the Test Substances to NK2-Receptors in Vitro
The affinity of test compounds for NK2-receptors can be determined by measuring the ability of the test compound to displace a radiolabeled ligand from its specific binding site.
(§1) The radiolabel used in this assay is [^3H]-SR 48968 (saredutant). Receptors were obtained from membrane preparations of CHO-cells (Chinese Hamster Ovary cells), in which the human NK2-receptor was stably expressed. Membranes were incubated with [^3H]-saredutant in the absence or presence of test compounds at different concentrations, diluted in a buffer system. Separation of bound radioactivity from free radioactivity was done by filtration through glass fiber filters (Packard GF/B) with several washings with ice-cold buffer solution. Bound radioactivity was measured with a liquid scintillation counter (total binding). Unspecific binding was determined by incubation with an excess (0.1 μmol/l) of unlabeled saredutant. Specific binding is obtained by subtracting the unspecific binding from the total binding.
(§2) Radioactivity of the specific binding was plotted against the concentration of the test compound and IC50 values, i.e. the concentration of test compound by which 50% of the radioligand is displaced, were calculated. The inhibition constant (Ki) was calculated according to the Cheng-Prusoff equation, and listed as its negative logarithmic value (pKi). The pKi value describes the potency of a test compound to bind to a receptor.
(§3) The average result of all measurements is listed above.

human NK1-receptor [2] = target: T2, human NK1-receptor (Homo sapiens, UniProt P25103); experiment: Binding potency of the test substances to NK1-receptors in vitro ([3H]-Substance P displacement); settings: human NK1-receptor in CHO cell membranes, average of at least three measurements
Experimental: 1. Determination of the Binding Potency of the Test Substances to NK1-Receptors in Vitro
The affinity of test compounds for NK1-receptors can be determined by measuring the ability of the test compound to displace a radiolabeled ligand from its specific binding site. The tests were performed at Solvay Pharmaceuticals, Weesp, The Netherlands.
Separation of bound radioactivity from free radioactivity was done by filtration through glass fiber filters (Packard GF/B) with several washings with ice-cold buffer solution. Bound radioactivity was measured with a liquid scintillation counter (total binding).
The inhibition constant (Ki) was calculated according to the Cheng-Prusoff equation, and listed as its negative logarithmic value (pKi). The pKi value describes the potency of a test compound to bind to a receptor.

human NK3 receptor [3] = target: T3, human NK3 receptor (Homo sapiens, UniProt P29371); experiment: Binding potency of the test substances to NK3-receptors in vitro ([3H]-SR 142801 displacement); set-up: expressed in transfected cells; host or cells: CHO cells (membrane preparation); settings: human NK3-receptor in CHO cell membranes, [3H]-SR 142801 (osanetant); average of at least three measurements; read-out: pKi, binding potency to NK3-receptors (converted)
T3 sequence (P29371 1-465): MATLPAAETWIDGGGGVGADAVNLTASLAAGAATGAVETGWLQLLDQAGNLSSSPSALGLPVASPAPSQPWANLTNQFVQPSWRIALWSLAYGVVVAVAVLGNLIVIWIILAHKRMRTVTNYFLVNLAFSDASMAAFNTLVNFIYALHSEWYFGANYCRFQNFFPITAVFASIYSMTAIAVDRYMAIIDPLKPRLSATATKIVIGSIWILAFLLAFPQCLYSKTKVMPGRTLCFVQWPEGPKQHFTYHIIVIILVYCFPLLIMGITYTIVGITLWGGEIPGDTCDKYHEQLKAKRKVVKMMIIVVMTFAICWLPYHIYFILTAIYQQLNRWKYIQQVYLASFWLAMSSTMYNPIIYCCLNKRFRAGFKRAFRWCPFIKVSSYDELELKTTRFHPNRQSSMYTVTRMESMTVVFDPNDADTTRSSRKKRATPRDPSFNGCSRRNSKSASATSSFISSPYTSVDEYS
Source text: 3. Determination of the Binding Potency of the Test Substances to NK3-Receptors in Vitro
The affinity of test compounds for NK3-receptors can be determined by measuring the ability of the test compound to displace a radiolabeled ligand from its specific binding site.
as §1, with “142801 (osanetant).” for “48968 (saredutant).”, “NK3-receptor” for “NK2-receptor”, “[^3H]-osanetant” for “[^3H]-saredutant”, “(1” for “(0.1”, “osanetant.” for “saredutant.”
as §2, with “(pKi)” for “(pKi).”
as §3

human NK2-receptor [4] = target: T1, human NK2-receptor; experiment: Functional cellular test, Ca2+ measurements using FLIPR for NK2 activity;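 also: CHO cells stably expressing the human receptor, loaded with a calcium dye, antagonist inhibition of ligand-evoked intracellular calcium rise read as peak fluorescence change on FLIPR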
human NK1-receptor [5] = target: T2, human NK1-receptor; experiment: Functional cellular test, Ca2+ measurements using FLIPR for NK1 activity; format: cell-based; set-up: expressed in transfected cells; host or cells: CHO fibroblast cells
Source text: The NK receptor is coupled to Gq.
All steps were done under sterile conditions.

human NK3 receptor [6] = target: T3, human NK3 receptor; experiment: Functional cellular test, Ca2+ measurements using aequorin for NK3 activity; format: cell-based; set-up: expressed in transfected cells; host or cells: cell line co-expressing mitochondrially targeted apoaequorin (CHO according to b76/b77); settings: read-out: pA2 data for NK3 (converted)
[7] = read-out: pKi, binding potency to NK1-receptors (converted)
[8] = pKi, binding potency to NK1-receptors
[9] = read-out: pA2 data for NK1 (converted)

T2 sequence (P25103 whole entry): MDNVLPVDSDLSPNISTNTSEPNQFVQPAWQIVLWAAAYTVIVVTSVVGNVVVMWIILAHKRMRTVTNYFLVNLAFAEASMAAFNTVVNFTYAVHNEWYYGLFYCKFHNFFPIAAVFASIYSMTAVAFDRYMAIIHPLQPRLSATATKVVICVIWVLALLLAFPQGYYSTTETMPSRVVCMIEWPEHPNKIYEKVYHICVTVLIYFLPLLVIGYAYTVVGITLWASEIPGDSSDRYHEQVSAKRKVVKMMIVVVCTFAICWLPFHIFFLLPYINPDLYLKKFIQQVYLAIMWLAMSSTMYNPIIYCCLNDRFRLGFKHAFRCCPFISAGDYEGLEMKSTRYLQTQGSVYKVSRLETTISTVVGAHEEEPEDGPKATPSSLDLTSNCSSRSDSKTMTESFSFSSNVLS

Structure (SMILES)	Ki (human NK2-receptor [1])	Ki (human NK1-receptor [2]; [7])	Ki (human NK3 receptor [3])	Kb (human NK2-receptor [4])	Ki (human NK1-receptor [2]; [8])	Kb (human NK1-receptor [5]; [9])	Kb (human NK1-receptor [5])	Kb (human NK3 receptor [6])
CN(C)C(=O)C1(N(C)C)CCN(CCC(CN(C)C(=O)c2ccccc2)c2ccc(Cl)c(Cl)c2)CC1 (centres unmarked) [compound 127]	2 nM	79.4 nM						
CN(C)C(=O)C1(N2CCCCC2)CCN(CCC(CN(C)C(=O)Cc2ccc(C(F)(F)F)c(C(F)(F)F)c2)c2ccc(Cl)c(Cl)c2)CC1 (centres unmarked) [compound 56]	25.1 nM	63.1 nM	5.01 nM					
CN(C)C(=O)C1(N2CCCCC2)CCN(CCC(CN(C)C(=O)c2cccc(C(F)(F)F)c2)c2ccc(Cl)c(Cl)c2)CC1 (centres unmarked) [compound 83]	5.01 nM		3.16 nM	15.8 nM	79.4 nM			
CN(C)C(=O)C1(N2CCCC2)CCN(CCC(CN(C)C(=O)c2cc(C#N)cc3ccccc23)c2ccc(Cl)c(Cl)c2)CC1 (centres unmarked) [compound 98]	5.01 nM	5.01 nM	63.1 nM	0.501 nM		1.58 nM		
CNc1ccccc1C(=O)N(C)CC(CCN1CCC(C(=O)N(C)C)(N2CCCCC2)CC1)c1ccc(Cl)c(Cl)c1 (centres unmarked) [compound 24]	5.01 nM	79.4 nM						
CN(CC(CCN1CCC(C(=O)N2CCCC2)(N2CCCCC2)CC1)c1ccc(Cl)c(Cl)c1)C(=O)c1cc(C#N)cc2ccccc12 (centres unmarked) [compound 126]	10 nM	6.31 nM	39.8 nM					
CCCCN(C(=O)CC)C1CCN(CC[C@H](CN(C)C(=O)c2ccccc2)c2ccc(Cl)c(Cl)c2)CC1 [compound 108, N-[(2S)-4-{4-[butyl(propionyl)amino]piperidin-1-yl}-2-(3,4-dichlorophenyl)butyl]-N-methylbenzamide]	3.98 nM			1 nM	12.6 nM		31.6 nM	
CN(C)C(=O)C1(N2CCN(CC[C@H](CN(C)C(=O)c3ccccc3)c3ccc(Cl)c(Cl)c3)CC2)CCCCC1 [compound 96, N-[(2S)-2-(3,4-dichlorophenyl)-4-(4-{1-[(dimethylamino)-carbonyl]cyclohexyl}piperazin-1-yl)butyl]-N-methylbenzamide]	2 nM			1.26 nM		31.6 nM		
CN(C)C(=O)C1(N2CCCC2)CCN(CC[C@H](CN(C)C(=O)c2ccccc2)c2ccc(Cl)c(Cl)c2)CC1 [compound 99, 1-[(3S)-4-[benzoyl(methyl)amino]-3-(3,4-dichlorophenyl)-butyl]-N,N-dimethyl-4-pyrrolidin-1-ylpiperidine-4-carboxamide]	0.631 nM		63.1 nM	0.251 nM		50.1 nM		
CN(C)C(=O)C1(N2CCCCC2)CCN(CCC(CN(C)C(=O)c2cccc(Cl)c2)c2ccc(Cl)c(Cl)c2)CC1 (centres unmarked) [compound 80]	2 nM	79.4 nM	79.4 nM					
CCC(=O)N(C1CCCCC1)C1CCN(CC[C@H](CN(C)C(=O)c2ccccc2)c2ccc(Cl)c(Cl)c2)CC1 [compound 116, N-[(2S)-4-{4-[cyclohexyl(propionyl)amino]piperidin-1-yl}-2-(3,4-dichlorophenyl)butyl]-N-methyl-benzamide]	5.01 nM			1.26 nM	79.4 nM		31.6 nM	
CNC(=O)C1(N2CCCCC2)CCN(CCC(CN(C)C(=O)c2cc(C#N)cc3ccccc23)c2ccc(Cl)c(Cl)c2)CC1 (centres unmarked) [compound 93]	15.8 nM	7.94 nM		3.98 nM		7.94 nM		
CN(CC(CCN1CCC(C(=O)N2CCCCC2)(N2CCCCC2)CC1)c1ccc(Cl)c(Cl)c1)C(=O)c1cc(C#N)cc2ccccc12 (centres unmarked) [compound 125]	50.1 nM	12.6 nM	50.1 nM					
CN(C)C(=O)C1(N2CCCCC2)CCN(CCC(CN(C)C(=O)C2CCCC2)c2ccc(Cl)c(Cl)c2)CC1 (centres unmarked) [compound 23]	2 nM		10 nM	1.26 nM		1.26 nM		12.6 nM
CN(C)C(=O)C1(N2CCCCC2)CCN(CCC(CN(C)C(=O)c2cc(C(F)(F)F)cc(C(F)(F)F)c2)c2ccc(Cl)c(Cl)c2)CC1 (centres unmarked) [compound 70]	25.1 nM	63.1 nM	63.1 nM					
COc1cccc(C(=O)N(C)CC(CCN2CCC(C(=O)N(C)C)(N3CCCCC3)CC2)c2ccc(Cl)c(Cl)c2)c1 (centres unmarked) [compound 82]	2.51 nM	79.4 nM	25.1 nM					
CN(C[C@@H](CCN1CCC(C(=O)N2CCCCC2)(N2CCCCC2)CC1)c1ccc(Cl)c(Cl)c1)C(=O)c1ccccc1 [compound 104, N-{(2S)-2-(3,4-dichlorophenyl)-4-[4′-(piperidin-1-ylcarbonyl)-1,4′-bipiperidin-1′-yl]butyl}-N-methylbenzamide]	2 nM		20 nM	15.8 nM		20 nM		15.8 nM
CN(C)C(=O)C1(N2CCCCC2)CCN(CCC(CN(C)C(=O)c2cccs2)c2ccc(Cl)c(Cl)c2)CC1 (centres unmarked) [compound 37]	1.58 nM		20 nM	1.58 nM				31.6 nM
Cc1c(C(=O)N(C)CC(CCN2CCC(C(=O)N(C)C)(N3CCCCC3)CC2)c2ccc(Cl)c(Cl)c2)nnn1Cc1ccccc1 (centres unmarked) [compound 67]	6.31 nM		5.01 nM	25.1 nM				15.8 nM

Source: patent US20070219214A1, “Dual NK2/NK3-antagonists, pharmaceutical compositions comprising them, and processes for their preparation” (Solvay pharmaceuticals GmbH, priority 2006, published 2007)
